We go through eight compounds from patent US11045449B2, “3-(5-fluoroindolyl)-4-arylmaleimide compounds and their use in tumor treatment” (JOHANNES GUTENBERG-UNIVERSITÄT MAINZ, priority 2015, dated 2021).

Structures can show the parent of a compound that is named as a salt.

Data set [1] in a line: metabolic conversion in rat liver microsomes. It is filed as in vitro ADME. To be noted: 40 μM compound, 37° C., pH 7.4, RP-HPLC-MS/MS. The procedure: In a further experiment the metabolic conversion of compounds (Ia) and (IIa) was evaluated according to the following procedure:
The test compounds were incubated in the reaction mixture given below with rat liver microsomes (Corning). For this purpose the reaction mixture (components 1-5, see below) was preincubated for 10 minutes at 37° C. The reaction was started with the addition of 10 μl of the test compound followed by incubation at 37° C. for 0-300 minutes, respectively. At each time point, 50 μl of the mixture were removed, added to 250 μl of ice cold acetonitrile and vortexed immediately. After centrifugation, the acetonitrile solution was analyzed by RP-HPLC-MS/MS system.
1. Magnesiumchloride hexahydrate 50 μl
2. Glucose-6-phosphate 50 μl
4. Glucose-6-phosphate-dehydrogenase: 10 μl
6. Compounds: 40 μM (10 μl of 4 mM solution in ethanol)
Total volume: 1000 μl in 0.1 M Trizma-buffer (pH 7.4 at 37° C.)
Acquity UPLC®-Quattro Premier XE (MS) system by Waters
Column: BEH C18, 2.1×50 mm, 1.2 μm pore diameter, Waters
Solvent A: H2O, NH4-formiate 2 mM+0.1% formic acid
Solvent B: Methanol, NH4-formiate 2 mM+0.1% formic acid
Flow regime: from 70% solvent A/30% solvent B to 100% Solvent A in 2.4 minutes, then 70% solvent A/30% solvent B for 0.8 minutes.
(In general: Liver microsomes are vesicles of endoplasmic reticulum, rich in cytochrome P450 enzymes.)

The target in a further data set is T1, FLT-3 (Homo sapiens, UniProt P36888).
T1 construct: purchased Eurofins Pharma Discovery Services UK Limited (KinaseProfiler)
T1 sequence (P36888 27-993): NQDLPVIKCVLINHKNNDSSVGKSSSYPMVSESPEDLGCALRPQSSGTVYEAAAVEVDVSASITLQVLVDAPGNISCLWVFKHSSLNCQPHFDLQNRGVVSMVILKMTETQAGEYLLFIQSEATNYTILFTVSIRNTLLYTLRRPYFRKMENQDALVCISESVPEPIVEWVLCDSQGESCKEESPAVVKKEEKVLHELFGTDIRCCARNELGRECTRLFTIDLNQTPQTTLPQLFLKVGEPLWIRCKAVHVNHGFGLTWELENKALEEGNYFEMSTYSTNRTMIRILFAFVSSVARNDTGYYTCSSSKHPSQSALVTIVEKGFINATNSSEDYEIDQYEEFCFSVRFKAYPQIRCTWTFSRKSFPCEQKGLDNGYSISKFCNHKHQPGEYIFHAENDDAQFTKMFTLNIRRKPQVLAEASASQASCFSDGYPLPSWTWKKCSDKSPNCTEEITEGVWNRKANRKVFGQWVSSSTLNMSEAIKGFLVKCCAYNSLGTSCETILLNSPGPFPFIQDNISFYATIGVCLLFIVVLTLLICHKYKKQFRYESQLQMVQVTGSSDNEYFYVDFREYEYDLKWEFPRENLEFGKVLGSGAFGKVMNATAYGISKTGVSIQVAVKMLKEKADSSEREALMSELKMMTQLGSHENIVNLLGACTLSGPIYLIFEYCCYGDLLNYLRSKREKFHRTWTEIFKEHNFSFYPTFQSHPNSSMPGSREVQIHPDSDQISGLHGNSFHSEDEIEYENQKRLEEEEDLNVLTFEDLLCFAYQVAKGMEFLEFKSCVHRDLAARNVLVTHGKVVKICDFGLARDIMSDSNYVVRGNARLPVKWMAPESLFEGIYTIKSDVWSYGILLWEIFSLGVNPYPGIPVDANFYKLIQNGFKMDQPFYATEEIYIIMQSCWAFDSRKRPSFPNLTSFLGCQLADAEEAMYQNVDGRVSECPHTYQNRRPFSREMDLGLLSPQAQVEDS
Put plainly: KinaseProfiler protein kinase inhibition, FLT-3. The format is biochemical. The procedure: (§1) The effect of test compounds on the activity of the protein kinases GSK-3β, VEGFR-2 and FLT-3 was evaluated based on half maximal inhibitory concentration (IC50) values determined by Eurofins Pharma Discovery Services UK Limited, Gemini Crescent, Dundee Technology Park, Dundee, DD2 1SW (KinaseProfiler™). Detailed information can be found at: http://www.eurofins.com/pharma-services/pharma-discovery-services/services/in-vitro-pharmacology/kinases/biochemical.aspx. The assays are also described in Biochem. J. (2013) 451, 313-328.

A further data set deals with T2, VEGFR-2 (Homo sapiens, UniProt P35968).
T2 construct: purchased Eurofins Pharma Discovery Services UK Limited (KinaseProfiler)
T2 sequence (P35968 20-1356): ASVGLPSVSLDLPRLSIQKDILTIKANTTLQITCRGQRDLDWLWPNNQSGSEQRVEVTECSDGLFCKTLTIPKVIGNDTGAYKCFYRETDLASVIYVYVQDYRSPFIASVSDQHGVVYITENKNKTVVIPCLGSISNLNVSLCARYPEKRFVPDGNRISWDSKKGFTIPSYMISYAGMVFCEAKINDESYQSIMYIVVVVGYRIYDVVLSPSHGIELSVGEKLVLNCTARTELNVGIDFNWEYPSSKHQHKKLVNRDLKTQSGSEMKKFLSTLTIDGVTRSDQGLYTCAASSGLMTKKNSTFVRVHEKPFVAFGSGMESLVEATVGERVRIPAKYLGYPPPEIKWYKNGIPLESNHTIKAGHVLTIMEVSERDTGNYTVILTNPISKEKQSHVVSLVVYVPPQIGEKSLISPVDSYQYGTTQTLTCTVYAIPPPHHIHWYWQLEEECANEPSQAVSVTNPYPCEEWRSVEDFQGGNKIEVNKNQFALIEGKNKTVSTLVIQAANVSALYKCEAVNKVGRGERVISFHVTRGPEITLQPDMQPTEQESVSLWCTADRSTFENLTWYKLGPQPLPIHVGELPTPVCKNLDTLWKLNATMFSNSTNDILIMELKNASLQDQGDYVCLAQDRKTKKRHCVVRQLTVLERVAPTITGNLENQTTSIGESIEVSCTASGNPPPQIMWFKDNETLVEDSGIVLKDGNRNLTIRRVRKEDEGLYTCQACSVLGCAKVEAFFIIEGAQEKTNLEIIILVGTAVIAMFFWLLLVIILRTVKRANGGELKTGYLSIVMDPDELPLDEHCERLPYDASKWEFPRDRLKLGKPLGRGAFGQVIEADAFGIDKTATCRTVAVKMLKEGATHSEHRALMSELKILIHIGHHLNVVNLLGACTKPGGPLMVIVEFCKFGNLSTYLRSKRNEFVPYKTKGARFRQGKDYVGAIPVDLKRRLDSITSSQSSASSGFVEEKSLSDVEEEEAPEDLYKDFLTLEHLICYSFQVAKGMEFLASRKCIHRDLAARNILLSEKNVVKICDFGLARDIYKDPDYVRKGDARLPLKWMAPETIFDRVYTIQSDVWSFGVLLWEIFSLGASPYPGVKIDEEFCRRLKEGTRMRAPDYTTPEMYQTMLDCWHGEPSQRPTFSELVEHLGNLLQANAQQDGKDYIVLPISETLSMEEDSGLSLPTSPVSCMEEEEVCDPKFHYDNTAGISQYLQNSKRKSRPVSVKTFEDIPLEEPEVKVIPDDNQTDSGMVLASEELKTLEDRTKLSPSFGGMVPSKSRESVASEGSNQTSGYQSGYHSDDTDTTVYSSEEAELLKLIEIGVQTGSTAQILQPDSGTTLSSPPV
Put plainly: KinaseProfiler protein kinase inhibition, VEGFR-2. The format is biochemical. An excerpt: Detailed information can be found at: http://www.eurofins.com/pharma-services/pharma-discovery-services/services/in-vitro-pharmacology/kinases/biochemical.aspx. The assays are also described in Biochem. J. (2013) 451, 313-328.

Another data set addresses GSK-3β (Homo sapiens, UniProt P49841). Put plainly: KinaseProfiler protein kinase inhibition, GSK-3β. It is filed as biochemical. The procedure: as §1
Data set [2] has as its system HT-29 human colon adenocarcinoma cells. Put plainly: MTT assay, antiproliferative activity. To be noted: HT-29 cells, 3 days exposure, FIG. 3. The format is cell-based. From the text: Each experiment was done in triplicate.
For orientation: Formazan colour is commonly taken as a measure of viable cells.

Sequence of GSK-3β (P49841 whole entry): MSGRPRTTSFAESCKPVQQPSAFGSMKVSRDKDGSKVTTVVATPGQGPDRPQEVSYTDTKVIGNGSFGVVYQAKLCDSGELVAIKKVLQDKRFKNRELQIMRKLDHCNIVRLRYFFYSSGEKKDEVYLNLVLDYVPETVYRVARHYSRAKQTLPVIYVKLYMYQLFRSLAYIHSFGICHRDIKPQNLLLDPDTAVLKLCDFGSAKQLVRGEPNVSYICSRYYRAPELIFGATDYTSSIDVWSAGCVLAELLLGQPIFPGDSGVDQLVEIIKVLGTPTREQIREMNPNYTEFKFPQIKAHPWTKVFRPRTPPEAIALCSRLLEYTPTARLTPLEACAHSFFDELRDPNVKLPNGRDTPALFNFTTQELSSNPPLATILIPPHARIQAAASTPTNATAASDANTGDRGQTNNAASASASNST

Turning to `COc1cc(C2=C(c3cn(CCOC(=O)C(N)CC(C)C)c4ccc(F)cc34)C(=O)NC2=O)cc(OC)c1OC` (stereo not shown) [Ia, 2-(3-(2,5-Dioxo-4-(3,4,5-trimethoxyphenyl)-2,5-dihydro-1H-pyrrol-3-yl)-5-fluoro-1H-indol-1-yl)-ethyl-2-amino-4-methylpentanoate], the “time until largely metabolized” value in data set [1] came out at 1 h.

In general, IC50 refers to the point on the concentration scale where inhibition reaches its midpoint. On to `COc1cc(C2=C(c3cn(CCCO)c4ccc(F)cc34)C(=O)NC2=O)cc(OC)c1OC` [If, 3-(5-fluoro-1-(3-hydroxypropyl)-1H-indol-3-yl)-4-(3,4,5-trimethoxyphenyl)-maleimide], for which the results for the IC50 against FLT-3 and against VEGFR-2 were 84 nM and 168 nM, respectively.

In general, melting point refers to the temperature of the solid-liquid transition. Turning to `COc1cc(C2=C(c3cn(CCO)c4ccc(F)cc34)C(=O)NC2=O)cc(OC)c1O` [Ic, 3-(5-fluoro-1-(2-hydroxyethyl)-1H-indol-3-yl)-4-(4-hydroxy-3,5-dimethoxyphenyl)-maleimide], the melting point is 233 °C.

Compound `COc1cc(C2=C(c3cn(CCCO)c4ccccc34)C(=O)NC2=O)cc(OC)c1OC` [IIe] had an IC50 against GSK-3β of 2 nM.

Regarding `COc1cc(C2=C(c3c[nH]c4ccc(F)cc34)C(=O)NC2=O)cc(OC)c1O` [Id, 3-(5-fluoro-1H-indol-3-yl)-4-(4-hydroxy-3,5-dimethoxyphenyl)-maleimide], the “antiproliferative activity (viability)” value in data set [2] is recorded as “higher activity as compared to (IId)”.

In the case of `COc1cc(C2=C(c3cn(CCOC(=O)C(N)CC(C)C)c4ccccc34)C(=O)NC2=O)cc(OC)c1OC` (stereo not shown) [IIa, reference compound], in data set [1], the “time until largely metabolized” value is on record as 2 h.

As to `COc1cc(C2=C(c3cn(CCO)c4ccc(F)cc34)C(=O)NC2=O)cc(OC)c1OC` [Ib, 3-(5-fluoro-1-(2-hydroxyethyl)-1H-indol-3-yl)-4-(3,4,5-trimethoxyphenyl)-maleimide], the IC50 against FLT-3 is 66 nM; on VEGFR-2, 79 nM.

On to `COc1cc(C2=C(c3cn(CCOC(=O)C(N)CC(C)C)c4ccc(F)cc34)C(=O)NC2=O)cc(OC)c1OC` (stereo not shown) (as salt: salt) [Ia, 2-(3-(2,5-Dioxo-4-(3,4,5-trimethoxyphenyl)-2,5-dihydro-1H-pyrrol-3-yl)-5-fluoro-1H-indol-1-yl)-ethyl-2-amino-4-methylpentanoate], for which the melting point amounted to 180 °C.
